Earlier results on one substance are cited in patent US20250212890A1, “COMBINATIONS OF AV3 MUTANT POLYPEPTIDES AND Bt TOXINS FOR PEST CONTROL” (Vestaron Corporation, priority 2022, published 2025).

Data set [1] concerns crustacean and insect sodium channels. The note with it: Moran et al., Toxicon 2009.
Data set [2] concerns mammalian sodium channels. The conditions noted are these: Moran et al., Toxicon 2009.

Regarding Av3, the “selectivity for crustacean and insect sodium channels” value in data set [1] is reported as “high selectivity”. Besides, the “selectivity for mammalian sodium channels” value in data set [2] is “low selectivity”.
